From PubChem BioAssay AID248 (DTP/NCI, 2004)
Several values for one entry are separate records, joined by “and”; a condition that tells them apart may be missing. Equal entries are not always repeated. Inconclusive results and toxic doses are left out. Cut-off read from the data, not from the text of the source: active = T/C of 150% or more; inactive = T/C below 125%.

Tested on: L1210 leukemia ip in BDF1 mice, survival T/C
Assay: NCI In Vivo Anticancer Drug Screen. Data for tumor model L1210 Leukemia (intraperitoneal) in B6D2F1 (BDF1) mice
Settings: endpoint: mean survival time, higher = longer survival
In short: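 Each compound was tested against a transplantable tumor grown in mice. The endpoint was survival, with treated animals benchmarked against vehicle controls as a simple ratio.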

[1] = dose: 100.0 mg/kg/injection, schedule: Q04DX003 (ip), vehicle: saline
[2] = dose: 200.0 mg/kg/injection, schedule: Q04DX003 (ip), vehicle: saline
[3] = dose: 400.0 mg/kg/injection, schedule: Q04DX003 (ip), vehicle: saline
[4] = dose: 100.0 mg/kg/injection, schedule: Q01DX009 (ip), vehicle: Klucel (hydroxypropylcellulose) (HPC)
[5] = dose: 200.0 mg/kg/injection, schedule: Q01DX009 (ip), vehicle: Klucel (hydroxypropylcellulose) (HPC)
[6] = dose: 400.0 mg/kg/injection, schedule: Q01DX009 (ip), vehicle: Klucel (hydroxypropylcellulose) (HPC)
[7] = dose: 100.0 mg/kg/injection, schedule: Q01DX009 (ip), vehicle: saline with Tween-80
[8] = dose: 200.0 mg/kg/injection, schedule: Q01DX009 (ip), vehicle: saline with Tween-80
[9] = dose: 400.0 mg/kg/injection, schedule: Q01DX009 (ip), vehicle: saline with Tween-80
[10] = dose: 100.0 mg/kg/injection, schedule: Q04DX003 (ip), vehicle: Klucel (hydroxypropylcellulose) (HPC)
[11] = dose: 200.0 mg/kg/injection, schedule: Q04DX003 (ip), vehicle: Klucel (hydroxypropylcellulose) (HPC)
[12] = dose: 400.0 mg/kg/injection, schedule: Q04DX003 (ip), vehicle: Klucel (hydroxypropylcellulose) (HPC)
[13] = dose: 100.0 mg/kg/injection, schedule: Q01DX001 (ip), vehicle: saline
[14] = dose: 200.0 mg/kg/injection, schedule: Q01DX001 (ip), vehicle: saline
[15] = dose: 50.0 mg/kg/injection, schedule: Q01DX009 (ip), vehicle: saline with Tween-80
[16] = dose: 400.0 mg/kg/injection, schedule: Q01DX001 (ip), vehicle: saline
[17] = dose: 100.0 mg/kg/injection, schedule: Q01DX009 (ip), vehicle: water
[18] = dose: 200.0 mg/kg/injection, schedule: Q01DX009 (ip), vehicle: water
[19] = dose: 400.0 mg/kg/injection, schedule: Q01DX009 (ip), vehicle: water

Measured: T/C

O=C(O)C1CC(Br)C2CC1C(=O)O2 (centres undefined)
inactive: [1] 91 % of control | [2] 105 % of control | [3] 97 % of control

N#CCCN(C(=O)Nc1cccc(Cl)c1)C1CCCCC1
inactive: [4] 103 % of control | [5] 90 % of control | [6] 97 % of control

O=C(c1ccc(F)cc1)c1ccc2ccccc2c1C(=O)O
inactive: dose: 100.0 mg/kg/injection, schedule: Q04DX002 (ip), vehicle: Klucel (hydroxypropylcellulose) (HPC) 89 % of control | dose: 200.0 mg/kg/injection, schedule: Q04DX002 (ip), vehicle: Klucel (hydroxypropylcellulose) (HPC) 92 % of control | dose: 400.0 mg/kg/injection, schedule: Q04DX002 (ip), vehicle: Klucel (hydroxypropylcellulose) (HPC) 99 % of control

CC(C(=O)c1ccc(Br)cc1)C(Br)c1ccccc1 (centres undefined)
inactive: [7] 95 % of control | dose: 100.0 mg/kg/injection, schedule: Q04DX003 (ip), vehicle: saline with Tween-80 96 % of control | [8] 95 % of control | dose: 200.0 mg/kg/injection, schedule: Q04DX003 (ip), vehicle: saline with Tween-80 91 % of control | [9] 95 % of control | dose: 400.0 mg/kg/injection, schedule: Q04DX003 (ip), vehicle: saline with Tween-80 98 % of control

COc1cc(/C=N/NC(=O)C[n+]2ccccc2)cc(OC)c1
inactive: dose: 25.0 mg/kg/injection, schedule: Q01DX009 (ip), vehicle: saline 119 % of control | dose: 50.0 mg/kg/injection, schedule: Q01DX009 (ip), vehicle: saline 103 % of control | dose: 100.0 mg/kg/injection, schedule: Q01DX009 (ip), vehicle: saline 116 % of control | [1] 96 % of control

CCc1cccc(CC)c1N(C(C)=O)C(C)=O
inactive: [7] 98 % of control | [8] 104 % of control | [9] 102 % of control

O=C(Nc1ccc([N+](=O)[O-])cn1)Nc1ccccc1F
inactive: dose: 100.0 mg/kg/injection, schedule: Q01DX001 (ip), vehicle: Klucel (hydroxypropylcellulose) (HPC) 92 % of control | [4] 101 % of control and 90 % of control | [10] 99 % of control | dose: 200.0 mg/kg/injection, schedule: Q01DX001 (ip), vehicle: Klucel (hydroxypropylcellulose) (HPC) 89 % of control | [5] 100 % of control and 87 % of control | [11] 105 % of control | dose: 400.0 mg/kg/injection, schedule: Q01DX001 (ip), vehicle: Klucel (hydroxypropylcellulose) (HPC) 92 % of control | [6] 101 % of control and 90 % of control | [12] 99 % of control

CNc1cc(Cl)ncn1
inactive: dose: 50.0 mg/kg/injection, schedule: Q01DX001 (ip), vehicle: saline 90 % of control | [13] 93 % of control | [14] 95 % of control

CC(C)N=Cc1ccccc1O.CC(C)N=Cc1ccccc1O.[Zn]
inactive: dose: 100.0 mg/kg/injection, schedule: Q01DX009 (ip), vehicle: saline sonified 91 % of control | [10] 88 % of control | dose: 200.0 mg/kg/injection, schedule: Q01DX009 (ip), vehicle: saline sonified 92 % of control | [11] 89 % of control | dose: 400.0 mg/kg/injection, schedule: Q01DX009 (ip), vehicle: saline sonified 96 % of control | [12] 93 % of control

CC(C)(C)C1CCC(OS(C)(=O)=O)C(OS(C)(=O)=O)C1 (centres undefined)
inactive: dose: 12.5 mg/kg/injection, schedule: Q04DX003 (ip), vehicle: Klucel (hydroxypropylcellulose) (HPC) 102 % of control | dose: 25.0 mg/kg/injection, schedule: Q04DX003 (ip), vehicle: Klucel (hydroxypropylcellulose) (HPC) 100 % of control

COP(=O)(O)C(C)=O (tested in a mixture with another compound)
inactive: dose: 100.0 mg/kg/injection, schedule: Q04DX002 (ip), vehicle: other 96 % of control | dose: 200.0 mg/kg/injection, schedule: Q04DX002 (ip), vehicle: other 114 % of control | dose: 400.0 mg/kg/injection, schedule: Q04DX002 (ip), vehicle: other 101 % of control

O=C(O)c1cc2ccccc2o1
inactive: [15] 90 % of control | [7] 97 % of control

O=C(O)CSC(=S)SCC(=O)O
inactive: [4] 100 % of control | [10] 100 % of control | [5] 97 % of control | [11] 105 % of control | [12] 101 % of control

Oc1cc(Cl)ccc1Cl
inactive: dose: 75.0 mg/kg/injection, schedule: Q01DX009 (ip), vehicle: saline 90 % of control | [1] 95 % of control | dose: 150.0 mg/kg/injection, schedule: Q01DX009 (ip), vehicle: saline 101 % of control | [2] 100 % of control | dose: 300.0 mg/kg/injection, schedule: Q01DX009 (ip), vehicle: saline 96 % of control | [3] 98 % of control

FC1(F)SC2C3CC(C4CCC=C43)C2C1(F)F (centres undefined)
inactive: dose: 0.78 mg/kg/injection, schedule: Q01DX009 (ip), vehicle: Klucel (hydroxypropylcellulose) (HPC) 96 % of control | dose: 1.56 mg/kg/injection, schedule: Q01DX009 (ip), vehicle: Klucel (hydroxypropylcellulose) (HPC) 93 % of control | dose: 1.56 mg/kg/injection, schedule: Q04DX003 (ip), vehicle: Klucel (hydroxypropylcellulose) (HPC) 102 % of control | dose: 3.13 mg/kg/injection, schedule: Q04DX003 (ip), vehicle: Klucel (hydroxypropylcellulose) (HPC) 100 % of control

COc1nc(C)c(C)[n+]([O-])n1
inactive: dose: 12.5 mg/kg/injection, schedule: Q01DX001 (ip), vehicle: saline with Tween-80 94 % of control | dose: 12.5 mg/kg/injection, schedule: Q01DX009 (ip), vehicle: saline with Tween-80 96 % of control | dose: 12.5 mg/kg/injection, schedule: Q04DX003 (ip), vehicle: saline with Tween-80 97 % of control | dose: 25.0 mg/kg/injection, schedule: Q01DX001 (ip), vehicle: saline with Tween-80 100 % of control | dose: 25.0 mg/kg/injection, schedule: Q01DX009 (ip), vehicle: saline with Tween-80 108 % of control | dose: 25.0 mg/kg/injection, schedule: Q04DX003 (ip), vehicle: saline with Tween-80 110 % of control | dose: 50.0 mg/kg/injection, schedule: Q01DX001 (ip), vehicle: saline with Tween-80 107 % of control | [15] 96 % of control | dose: 50.0 mg/kg/injection, schedule: Q04DX003 (ip), vehicle: saline with Tween-80 94 % of control

O=[N+]([O-])c1ccccc1NC1c2ccccc2Oc2ccccc21
inactive: [10] 96 % of control | [11] 93 % of control | [12] 93 % of control

COc1ccc(/C=C(/C)C(=O)c2ccccc2)cc1
inactive: [10] 98 % of control | [11] 88 % of control | [12] 103 % of control

CCOC(=O)C(C(=O)OCC)C1C=CCC1 (centres undefined)
inactive: [4] 104 % of control | [10] 98 % of control | [5] 96 % of control | [11] 97 % of control | [6] 91 % of control | [12] 108 % of control

COc1ccc(CC/C(=N/O)c2ccccc2)cc1
inactive: dose: 50.0 mg/kg/injection, schedule: Q01DX001 (ip), vehicle: other 94 % of control | dose: 100.0 mg/kg/injection, schedule: Q01DX001 (ip), vehicle: other 100 % of control | dose: 200.0 mg/kg/injection, schedule: Q01DX001 (ip), vehicle: other 90 % of control | dose: 400.0 mg/kg/injection, schedule: Q01DX001 (ip), vehicle: other 102 % of control

N#Cc1cnc(SCC(=O)O)nc1N
inactive: [13] 96 % of control | [14] 102 % of control | [16] 102 % of control

CCCCC(=O)N/N=C/c1ccc(OC)c(O)c1
inactive: [13] 109 % of control | [14] 104 % of control | [16] 106 % of control

COC(CSc1ncc2cnccn12)OC
inactive: [17] 102 % of control | dose: 100.0 mg/kg/injection, schedule: Q04DX003 (ip), vehicle: water 103 % of control | [18] 100 % of control | dose: 200.0 mg/kg/injection, schedule: Q04DX003 (ip), vehicle: water 106 % of control | [19] 100 % of control | dose: 400.0 mg/kg/injection, schedule: Q04DX003 (ip), vehicle: water 108 % of control

NC(=S)N/N=C\c1c[nH]c2nccnc12
inactive: dose: 25.0 mg/kg/injection, schedule: Q01DX009 (ip), vehicle: water 108 % of control | dose: 50.0 mg/kg/injection, schedule: Q01DX009 (ip), vehicle: water 97 % of control | [17] 102 % of control | [18] 90 % of control | [19] 88 % of control
